# Results taken from US20070218121A1, “Compounds that inhibit caspase activity for treating glaucoma” (priority 1997, published 2007).
# Test system: HEK-293-nNOS cells transfected with mICE-lacZ (caspase-1)
# Assay: Inhibition of caspase-induced apoptosis by endogenous NO in HEK-293-nNOS cells transfected with mICE-lacZ (propidium iodide, apoptotic nuclei count)
# Format: cell-based
# Settings: 6 μM 4-Br-A23187 for 48 h after caspase-1 transfection; raises Ca2+ to activate nNOS and produce NO; p≦0.007; FIG. 1
# Description: HEK-293 cells [Bredt et al., Nature 351: 714-719 (199)] overexpressing nNOS were transiently transfected with mICE-lacZ (containing the caspase-1 construct [Miura et al., Cell 75: 653-660 (1993)] or control placZ using the calcium phosphate precipitation method. Following transfection, cells were incubated in absence (0 μM) or presence of 6 μM 4-Br-A23187 for 48 h. Cells were then permeabilized, fixed, and stained with propidium iodide. Apoptotic nuclei were counted in ≧12 fields and results expressed as a percentage of total nuclei. The results are shown in FIG. 1. Values are the mean ± SEM for n≧3 from at least two experiments.
structure (smiles),measurement,value
CNc1c(Br)cc2oc(C[C@H]3OC4(CC[C@H]3C)O[C@H]([C@H](C)C(=O)c3ccc[nH]3)[C@H](C)C[C@H]4C)nc2c1C(=O)O (stereo partly shown) [4-Br-A23187],apoptosis (apoptotic nuclei as percentage of total nuclei),highly significant decrease in apoptosis
